# In ChEMBL document CHEMBL4706551, “Rational design of new multitarget histamine H receptor ligands as potential candidates for treatment of Alzheimer's disease” (Eur J Med Chem, 2020):
# Active and inactive are the calls of the source.
# Experiments:
# [1] = biological target: T1, Amine oxidase [flavin-containing] B (Homo sapiens, UniProt P27338); experiment: biochemical; assay type: cell-based, BTI
# T1 sequence (P27338 whole entry): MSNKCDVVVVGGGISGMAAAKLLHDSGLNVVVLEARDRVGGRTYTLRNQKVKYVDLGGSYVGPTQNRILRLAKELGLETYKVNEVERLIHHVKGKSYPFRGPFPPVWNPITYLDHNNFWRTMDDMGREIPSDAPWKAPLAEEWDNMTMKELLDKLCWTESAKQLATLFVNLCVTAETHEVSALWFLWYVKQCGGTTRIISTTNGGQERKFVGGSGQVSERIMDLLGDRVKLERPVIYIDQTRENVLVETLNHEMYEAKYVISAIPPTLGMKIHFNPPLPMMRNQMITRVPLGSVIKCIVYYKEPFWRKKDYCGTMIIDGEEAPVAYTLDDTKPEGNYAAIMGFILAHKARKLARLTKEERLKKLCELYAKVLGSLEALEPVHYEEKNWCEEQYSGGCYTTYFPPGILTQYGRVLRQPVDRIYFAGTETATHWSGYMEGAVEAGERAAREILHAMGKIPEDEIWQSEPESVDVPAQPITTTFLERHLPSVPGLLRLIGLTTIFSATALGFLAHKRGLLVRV
# Description: Inhibition of recombinant human MAO-B expressed in baculovirus infected BTI cells using p-tyramine as substrate by fluorometric assay
# MAO-A = biological target: T2, MAO-A (Homo sapiens, UniProt P21397); experiment: Inhibition of recombinant human MAO-A expressed in baculovirus infected BTI cells at 10 uM using p-tyramine as substrate by fluorometric assay relative to control; conditions: probe p-tyramine
# T2 sequence (P21397 whole entry): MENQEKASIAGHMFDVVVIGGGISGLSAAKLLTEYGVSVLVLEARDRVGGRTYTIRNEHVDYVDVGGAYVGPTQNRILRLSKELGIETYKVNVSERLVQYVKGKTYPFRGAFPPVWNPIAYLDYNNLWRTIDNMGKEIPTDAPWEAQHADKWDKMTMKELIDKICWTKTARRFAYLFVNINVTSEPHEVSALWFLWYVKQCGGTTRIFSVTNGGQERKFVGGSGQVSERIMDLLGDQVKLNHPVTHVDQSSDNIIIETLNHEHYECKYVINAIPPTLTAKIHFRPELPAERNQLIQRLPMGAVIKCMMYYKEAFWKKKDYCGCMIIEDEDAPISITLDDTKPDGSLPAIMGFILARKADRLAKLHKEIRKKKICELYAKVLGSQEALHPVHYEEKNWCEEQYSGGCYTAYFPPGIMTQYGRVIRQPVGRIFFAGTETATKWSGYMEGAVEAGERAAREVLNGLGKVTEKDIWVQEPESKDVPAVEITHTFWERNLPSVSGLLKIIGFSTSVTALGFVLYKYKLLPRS
# Acetylcholinesterase [2] = biological target: Acetylcholinesterase (Homo sapiens, UniProt P22303); experiment: Inhibition of recombinant human AChE using ATCI as substrate incubated for 5 mins followed by substrate addition and measured after 5 mins by spectrophotometric based Ellman's method
# Sequence of Acetylcholinesterase (Homo sapiens, UniProt P22303) (P22303 whole entry): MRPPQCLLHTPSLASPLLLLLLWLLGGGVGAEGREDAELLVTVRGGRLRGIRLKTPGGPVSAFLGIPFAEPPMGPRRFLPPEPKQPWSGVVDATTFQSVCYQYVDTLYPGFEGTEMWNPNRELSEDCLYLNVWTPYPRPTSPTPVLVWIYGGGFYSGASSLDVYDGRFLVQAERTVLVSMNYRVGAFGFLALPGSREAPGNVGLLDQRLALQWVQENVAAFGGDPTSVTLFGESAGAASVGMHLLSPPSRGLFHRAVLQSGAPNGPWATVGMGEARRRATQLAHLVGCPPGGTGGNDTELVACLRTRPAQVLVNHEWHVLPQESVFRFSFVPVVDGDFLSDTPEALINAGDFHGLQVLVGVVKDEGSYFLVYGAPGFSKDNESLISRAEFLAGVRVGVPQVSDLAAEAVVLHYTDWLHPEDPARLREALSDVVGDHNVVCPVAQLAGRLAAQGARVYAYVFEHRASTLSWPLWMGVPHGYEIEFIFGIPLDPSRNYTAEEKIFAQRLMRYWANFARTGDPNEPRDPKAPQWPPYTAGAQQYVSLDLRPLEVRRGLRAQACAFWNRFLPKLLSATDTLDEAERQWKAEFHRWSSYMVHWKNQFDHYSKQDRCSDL
# Mus musculus [3] = experiment: Analgesic activity in formalin-induced nociception CD-1 mouse model assessed as reduction in pain behaviour by measuring less licking of formalin injected hind paw compound administered intraperitoneally prior to formalin induction and measured during early phase (0 to 5 mins after formalin injection) by formalin test; assay type: functional; conditions: CD-1, ip, time 0-5 min
# Rattus norvegicus [4] = experiment: Antiinflammatory activity against Wistar (Krf:WI) rat assessed as reduction in carragenan-induced paw edema at 22.5 mg/kg treated prior to carrageenan challenge and measured after 2 hrs by plethysmometry relative to control; assay type: functional
# Rattus norvegicus [5] = experiment: Antiinflammatory activity against Wistar (Krf:WI) rat assessed as reduction in carragenan-induced paw edema at 22.5 mg/kg treated prior to carrageenan challenge and measured after 6 hrs by plethysmometry relative to control; assay type: functional
# Rattus norvegicus [6] = experiment: Antiinflammatory activity against Wistar (Krf:WI) rat assessed as reduction in carragenan-induced paw edema at 22.5 mg/kg treated prior to carrageenan challenge and measured after 24 hrs by plethysmometry relative to control; assay type: functional
# Rattus norvegicus [7] = experiment: Antiinflammatory activity against Wistar (Krf:WI) rat assessed as reduction in carragenan-induced paw edema at 30 mg/kg treated prior to carrageenan challenge and measured after 1 hr by plethysmometry relative to control; assay type: functional
# Rattus norvegicus [8] = experiment: Antiinflammatory activity against Wistar (Krf:WI) rat assessed as reduction in carragenan-induced paw edema at 30 mg/kg treated prior to carrageenan challenge and measured after 2 hrs by plethysmometry relative to control; assay type: functional
# Rattus norvegicus [9] = experiment: Antiinflammatory activity against Wistar (Krf:WI) rat assessed as reduction in carragenan-induced paw edema at 30 mg/kg treated prior to carrageenan challenge and measured after 24 hrs by plethysmometry relative to control; assay type: functional
# Rattus norvegicus [10] = experiment: Analgesic activity in Wistar (Krf:WI) rat assessed as inhibition of carrageenan-induced mechanical inflammatory hyperalgesia by measuring paw withdrawl threshold at 22.5 mg/kg treated prior to carrageenan challenge and measured upto 24 hrs (reference value: 88.4 to 90.9 %); assay type: functional; set-up: scale not given: the % may be the effect or the level left; conditions: time hrs <=24
# Rattus norvegicus [11] = experiment: Analgesic activity in carragenan-induced thermal hyperalgesia model of Wistar (Krf:WI) rat assessed as latency of nociceptive response for radiant heat stimulation at 30 mg/kg treated prior to carrageenan challenge and measured after 3 hrs (reference value: 50.3%); assay type: functional
# Rattus norvegicus [12] = experiment: Analgesic activity in carragenan-induced thermal hyperalgesia model of Wistar (Krf:WI) rat assessed as latency of nociceptive response for radiant heat stimulation at 30 mg/kg treated prior to carrageenan challenge and measured after 6 hrs (reference value: 43.2%); assay type: functional
# Mus musculus [13] = experiment: (§1) Antiallodynic activity in oxaliplatin-induced peripheral neuropathy pain CD-1 mouse model assessed as inhibition of early-phase tactile allodynia by measuring pain sensitivity threshold administered with compound intraperitoneally at 3 hrs after oxaliplatin stimulation and measured after 30 mins by von Frey test; assay type: functional, organism-based; conditions: dose 15-30 mg/kg
# Mus musculus [14] = experiment: as §1, with “threshold at 15 mg/kg” for “threshold”, “test (reference value: 61.2 %)” for “test”; assay type: functional; set-up: scale not given: the % may be the effect or the level left; conditions: 0.5 h
# Mus musculus [15] = experiment: as §1, with “threshold at 30 mg/kg” for “threshold”, “test (reference value: 61.2 %)” for “test”; assay type: functional; set-up: scale not given: the % may be the effect or the level left; conditions: 0.5 h
# Mus musculus [16] = experiment: as §1, with “late-phase” for “early-phase”, “threshold at 15 mg/kg” for “threshold”, “7 days” for “3 hrs”, “test (reference value: 65.3%)” for “test”; assay type: functional; set-up: scale not given: the % may be the effect or the level left; conditions: 0.5 h
# Mus musculus [17] = experiment: as §1, with “late-phase” for “early-phase”, “threshold at 22.5 mg/kg” for “threshold”, “7 days” for “3 hrs”, “test (reference value: 65.3%)” for “test”; assay type: functional; set-up: scale not given: the % may be the effect or the level left; conditions: 0.5 h
# Mus musculus [18] = experiment: as §1, with “late-phase” for “early-phase”, “threshold at 30 mg/kg” for “threshold”, “7 days” for “3 hrs”, “test (reference value: 65.3%)” for “test”; assay type: functional; set-up: scale not given: the % may be the effect or the level left; conditions: 0.5 h
# [19] = biological target: Acetylcholinesterase (Electrophorus electricus) (UniProt O42275); experiment: Non-competitive inhibition of Electric eel AChE using ATCI as substrate incubated for 5 mins followed by substrate addition and measured after 5 mins by spectrophotometric based Lineweaver-Burk plot analysis; conditions: time 10.0 min
# Sequence of Acetylcholinesterase (Electrophorus electricus) (O42275 24-633 limits assumed): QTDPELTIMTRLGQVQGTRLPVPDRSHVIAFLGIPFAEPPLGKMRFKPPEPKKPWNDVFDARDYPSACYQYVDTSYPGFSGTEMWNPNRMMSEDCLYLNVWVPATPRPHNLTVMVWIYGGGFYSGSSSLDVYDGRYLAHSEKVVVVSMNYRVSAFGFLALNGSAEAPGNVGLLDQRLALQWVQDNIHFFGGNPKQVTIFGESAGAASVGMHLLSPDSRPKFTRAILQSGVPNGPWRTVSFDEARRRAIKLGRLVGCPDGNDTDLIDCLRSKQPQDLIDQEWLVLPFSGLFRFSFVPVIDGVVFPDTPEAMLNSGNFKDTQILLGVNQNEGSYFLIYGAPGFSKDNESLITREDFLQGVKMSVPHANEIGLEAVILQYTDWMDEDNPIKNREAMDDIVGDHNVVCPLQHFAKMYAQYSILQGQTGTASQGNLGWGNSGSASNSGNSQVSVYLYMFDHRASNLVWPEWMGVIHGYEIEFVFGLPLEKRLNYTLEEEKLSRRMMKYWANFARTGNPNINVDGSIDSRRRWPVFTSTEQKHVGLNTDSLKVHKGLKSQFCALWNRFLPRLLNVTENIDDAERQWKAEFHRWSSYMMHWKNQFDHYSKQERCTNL
# [20] = biological target: Acetylcholinesterase (Electrophorus electricus) (UniProt O42275); experiment: Non-competitive inhibition of Electric eel AChE using ATCI as substrate incubated for 5 mins followed by substrate addition and measured after 5 mins by spectrophotometric based Cornish-Bowden plot analysis; conditions: time 10.0 min
# Acetylcholinesterase [21] = biological target: Acetylcholinesterase (Electrophorus electricus, UniProt O42275)
# Sequence of Acetylcholinesterase (Electrophorus electricus, UniProt O42275) (O42275 whole entry): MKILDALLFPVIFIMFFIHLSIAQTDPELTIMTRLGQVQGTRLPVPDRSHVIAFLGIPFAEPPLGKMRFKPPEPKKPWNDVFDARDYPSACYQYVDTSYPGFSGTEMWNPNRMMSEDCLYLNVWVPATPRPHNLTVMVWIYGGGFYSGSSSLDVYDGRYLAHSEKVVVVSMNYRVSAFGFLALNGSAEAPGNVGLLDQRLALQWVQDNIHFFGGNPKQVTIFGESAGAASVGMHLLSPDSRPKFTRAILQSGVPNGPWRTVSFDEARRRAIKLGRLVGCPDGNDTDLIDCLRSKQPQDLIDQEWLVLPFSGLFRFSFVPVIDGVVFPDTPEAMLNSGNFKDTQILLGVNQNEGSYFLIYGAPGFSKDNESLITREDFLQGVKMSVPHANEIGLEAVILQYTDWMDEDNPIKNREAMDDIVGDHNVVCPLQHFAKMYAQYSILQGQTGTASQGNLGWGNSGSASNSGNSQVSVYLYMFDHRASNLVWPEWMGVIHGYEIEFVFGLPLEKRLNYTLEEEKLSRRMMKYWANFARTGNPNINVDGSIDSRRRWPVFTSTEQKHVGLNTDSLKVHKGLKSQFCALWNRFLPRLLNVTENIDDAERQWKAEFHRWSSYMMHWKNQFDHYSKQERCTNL
# Description: Inhibition of Electric eel AChE using ATCI as substrate incubated for 5 mins followed by substrate addition and measured after 5 mins by spectrophotometric based Ellman's method
# Cholinesterase = Cholinesterase (Equus caballus, UniProt P81908)
# Sequence of Cholinesterase (P81908 whole entry): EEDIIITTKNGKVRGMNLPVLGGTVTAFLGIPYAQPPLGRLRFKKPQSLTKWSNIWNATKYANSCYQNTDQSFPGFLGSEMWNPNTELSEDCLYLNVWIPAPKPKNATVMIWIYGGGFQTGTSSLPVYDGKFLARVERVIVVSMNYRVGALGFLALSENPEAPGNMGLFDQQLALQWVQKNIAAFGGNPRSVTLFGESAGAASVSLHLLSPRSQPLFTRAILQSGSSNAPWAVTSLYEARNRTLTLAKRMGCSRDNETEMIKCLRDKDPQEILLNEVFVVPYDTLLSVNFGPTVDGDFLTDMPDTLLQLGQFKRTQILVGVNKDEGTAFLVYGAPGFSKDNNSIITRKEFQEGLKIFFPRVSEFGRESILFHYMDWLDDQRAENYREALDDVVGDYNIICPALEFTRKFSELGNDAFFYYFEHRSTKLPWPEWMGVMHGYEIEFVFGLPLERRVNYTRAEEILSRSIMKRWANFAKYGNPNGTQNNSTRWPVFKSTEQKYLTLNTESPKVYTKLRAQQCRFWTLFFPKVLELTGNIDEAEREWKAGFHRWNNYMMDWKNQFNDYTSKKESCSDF
# Description: Inhibition of equine serum BChE using BTCI as substrate incubated for 5 mins followed by substrate addition and measured after 5 mins by spectrophotometric based Ellman's method
structure (smiles),measurement,setting,value
O=c1c2ccccc2oc2ccc(OCCCCCN3CCCCCC3)cc12,IC50,[1],775 nM
same,inhibition at 10 µM,MAO-A,< 50%
same,IC50,Acetylcholinesterase [2],392 nM
same,ED50,Mus musculus [3],24.7 mg/kg
same,inhibition in vivo at 22.5 mg/kg,Rattus norvegicus [4],32.8%
same,inhibition in vivo at 22.5 mg/kg,Rattus norvegicus [5],19.4%
same,inhibition in vivo at 22.5 mg/kg,Rattus norvegicus [6],22.4%
same,inhibition in vivo at 30 mg/kg,Rattus norvegicus [7],77.9%
same,inhibition in vivo at 30 mg/kg,Rattus norvegicus [8],53.3%
same,inhibition in vivo at 30 mg/kg,Rattus norvegicus [9],57.8%
same,Activity,Rattus norvegicus [10],94.6%
same,Activity,Rattus norvegicus [11],96%
same,Activity,Rattus norvegicus [12],92%
same,Activity,Mus musculus [13],Dose-dependent effect
same,Activity,Mus musculus [14],88.5%
same,Activity,Mus musculus [15],95.6%
same,Activity,Mus musculus [16],85.9%
same,Activity,Mus musculus [17],88.5%
same,Activity,Mus musculus [18],100%
same,inhibition,[19],Active
same,inhibition,[20],Active
same,IC50,Acetylcholinesterase [21],180 nM
same,IC50,Cholinesterase,880 nM
